In ChEMBL document CHEMBL1629665, “Contribution of vraSR and graSR point mutations to vancomycin resistance in vancomycin-intermediate Staphylococcus aureus” (2009) one finds MIC data, which are given here for 3 compounds.

For orientation: MIC means the lowest concentration found to suppress growth.

Type in all cases: functional
Assay [1] relates to Staphylococcus aureus. The assay is described as follows: Antibacterial activity against vancomycin-intermediate Staphylococcus aureus Mu50 after 24 hrs by Etest. To be noted: Mu50, 24 h.
The subject of assay [2] is Staphylococcus aureus. The assay is described as follows: Antibacterial activity against vancomycin-susceptible Staphylococcus aureus Mu50omega after 24 hrs by Etest.
Assay [3] concerns Staphylococcus aureus. The assay is described as follows: Antibacterial activity against vancomycin-susceptible Staphylococcus aureus Mu50omega expressing vraSn mutant gene after 24 hrs by Etest.
The test system of assay [4] is Staphylococcus aureus. The assay is described as follows: Antibacterial activity against vancomycin-susceptible Staphylococcus aureus Mu50omega expressing vraSm mutant gene after 24 hrs by Etest.
Assay [5] deals with Staphylococcus aureus. The assay is described as follows: Antibacterial activity against vancomycin-susceptible Staphylococcus aureus Mu50omega expressing vraSm, graRm mutant gene after 24 hrs by Etest.
Assay [6] relates to Staphylococcus aureus. Put plainly: Antibacterial activity against vancomycin-intermediate Staphylococcus aureus Mu50 after 48 hrs by Etest. To be noted: Mu50, 48 h.
Assay [7] concerns Staphylococcus aureus. The assay is described as follows: Antibacterial activity against vancomycin-susceptible Staphylococcus aureus Mu50omega after 48 hrs by Etest.
Assay [8] deals with Staphylococcus aureus. Put plainly: Antibacterial activity against vancomycin-susceptible Staphylococcus aureus Mu50omega expressing vraSn mutant gene after 48 hrs by Etest.
For assay [9], the system named is Staphylococcus aureus. The assay is described as follows: Antibacterial activity against vancomycin-susceptible Staphylococcus aureus Mu50omega expressing vraSm mutant gene after 48 hrs by Etest.
Assay [10] has as its system Staphylococcus aureus. The assay is described as follows: Antibacterial activity against vancomycin-susceptible Staphylococcus aureus Mu50omega expressing vraSm, graRm mutant gene after 48 hrs by Etest.
For assay [11], the system named is Staphylococcus aureus. The assay is described as follows: Antibacterial activity against vancomycin-intermediate Staphylococcus aureus Mu50 after 24 hrs by Etest in presence of Sulbactam. To be noted: Mu50, 24 h.
For assay [12], the system named is Staphylococcus aureus. The assay is described as follows: Antibacterial activity against vancomycin-susceptible Staphylococcus aureus Mu50omega after 24 hrs by Etest in presence of Sulbactam.
Assay [13] deals with Staphylococcus aureus. Put plainly: Antibacterial activity against vancomycin-susceptible Staphylococcus aureus Mu50omega expressing vraSn mutant gene after 24 hrs by Etest in presence of Sulbactam.
In assay [14] the test system is Staphylococcus aureus. Put plainly: Antibacterial activity against vancomycin-susceptible Staphylococcus aureus Mu50omega expressing vraSm mutant gene after 24 hrs by Etest in presence of Sulbactam.
The subject of assay [15] is Staphylococcus aureus. The assay is described as follows: Antibacterial activity against vancomycin-susceptible Staphylococcus aureus Mu50omega expressing vraSm, graRm mutant gene after 24 hrs by Etest in presence of Sulbactam.
The subject of assay [16] is Staphylococcus aureus. Put plainly: Antibacterial activity against vancomycin-intermediate Staphylococcus aureus Mu50 after 48 hrs by Etest in presence of Sulbactam. To be noted: Mu50, 48 h.
Assay [17] relates to Staphylococcus aureus. Put plainly: Antibacterial activity against vancomycin-susceptible Staphylococcus aureus Mu50omega after 48 hrs by Etest in presence of Sulbactam.
The test system of assay [18] is Staphylococcus aureus. Put plainly: Antibacterial activity against vancomycin-susceptible Staphylococcus aureus Mu50omega expressing vraSn mutant gene after 48 hrs by Etest in presence of Sulbactam.
For assay [19], the system named is Staphylococcus aureus. Put plainly: Antibacterial activity against vancomycin-susceptible Staphylococcus aureus Mu50omega expressing vraSm mutant gene after 48 hrs by Etest in presence of Sulbactam.
Assay [20] deals with Staphylococcus aureus. Put plainly: Antibacterial activity against vancomycin-susceptible Staphylococcus aureus Mu50omega expressing vraSm, graRm mutant gene after 48 hrs by Etest in presence of Sulbactam.

Converted amounts (≈) assume the structure as drawn.

As for `CC1(C)S[C@@H]2[C@H](NC(=O)[C@H](N)c3ccccc3)C(=O)N2[C@H]1C(=O)O` [AMPICILLIN], the minimal inhibitory concentration (MIC) against Staphylococcus aureus [1] is 8 µg/mL (≈ 22.9 µM); in the assay with Staphylococcus aureus [2], 1 µg/mL (≈ 2.86 µM); against Staphylococcus aureus [3] it was 12 µg/mL (≈ 34.3 µM); in the assay with Staphylococcus aureus [4] it was 12 µg/mL (≈ 34.3 µM); in the assay on Staphylococcus aureus [5] it was 12 µg/mL (≈ 34.3 µM); in the assay on Staphylococcus aureus [6], 8 µg/mL (≈ 22.9 µM). The MIC was determined as 1 µg/mL (≈ 2.86 µM) in the assay with Staphylococcus aureus [7]; 12 µg/mL (≈ 34.3 µM) in the assay with Staphylococcus aureus [8]; 12 µg/mL (≈ 34.3 µM) against Staphylococcus aureus [9]; 12 µg/mL (≈ 34.3 µM) in the assay with Staphylococcus aureus [10]; 48 µg/mL with Staphylococcus aureus [11]; 2 µg/mL in the assay with Staphylococcus aureus [12]. Also, the MIC with Staphylococcus aureus [13] worked out at 48 µg/mL; in the assay on Staphylococcus aureus [14], 64 µg/mL; in the assay on Staphylococcus aureus [15], 64 µg/mL; in the assay on Staphylococcus aureus [16], 48 µg/mL; with Staphylococcus aureus [17], 2 µg/mL; with Staphylococcus aureus [18], 48 µg/mL. In addition, the MIC in the assay with Staphylococcus aureus [19] and in the assay with Staphylococcus aureus [20] was 64 µg/mL throughout.

Regarding `CN(C)c1ccc(O)c2c1C[C@H]1C[C@H]3[C@H](N(C)C)C(O)=C(C(N)=O)C(=O)[C@@]3(O)C(O)=C1C2=O` [MINOCYCLINE], the MIC in the assay on Staphylococcus aureus [1] is 12 µg/mL (≈ 26.2 µM); with Staphylococcus aureus [2], 10 µg/mL (≈ 21.9 µM); against Staphylococcus aureus [3] it was 8 µg/mL (≈ 17.5 µM); against Staphylococcus aureus [4], 8 µg/mL (≈ 17.5 µM); against Staphylococcus aureus [5], 8 µg/mL (≈ 17.5 µM); with Staphylococcus aureus [6], 24 µg/mL (≈ 52.5 µM). Also, the MIC with Staphylococcus aureus [7], in the assay with Staphylococcus aureus [8], against Staphylococcus aureus [9] and in the assay with Staphylococcus aureus [10] was 24 µg/mL (≈ 52.5 µM) each time.

Regarding `CO/N=C(\C(=O)N[C@@H]1C(=O)N2C(C(=O)O)=CCS[C@H]12)c1csc(N)n1` [CEFTIZOXIME], the MIC in the assay on Staphylococcus aureus [1] is over 256 µg/mL; in the assay on Staphylococcus aureus [2], 0.38 µg/mL (≈ 0.991 µM); in the assay with Staphylococcus aureus [3], over 256 µg/mL; against Staphylococcus aureus [4], over 256 µg/mL; in the assay with Staphylococcus aureus [5] it was over 256 µg/mL; against Staphylococcus aureus [6], over 256 µg/mL. For the same compound, the MIC was 0.5 µg/mL (≈ 1.3 µM) in the assay on Staphylococcus aureus [7], over 256 µg/mL against Staphylococcus aureus [8], over 256 µg/mL in the assay on Staphylococcus aureus [9] and over 256 µg/mL against Staphylococcus aureus [10].
